According to patent US20230265151A1, “GIP/GLP1 CO-AGONIST COMPOUNDS” (priority 2020, published 2023):
Where two headings read alike, the source gives them in different places.

Experiments:
Type in all cases: cell-based
hGCGR = target: T1, hGCGR (Homo sapiens, UniProt P47871); test: Functional cAMP formation (HTRF) in HEK-293 clonal cells expressing hGCGR, 0.1% bovine casein, without or with 1.0% human serum albumin; details: 37° C., geometric mean, read-out: hGCGR EC50, nM (SEM, n)
T1 construct: expressed in transfected cells
T1 sequence (P47871 26-477): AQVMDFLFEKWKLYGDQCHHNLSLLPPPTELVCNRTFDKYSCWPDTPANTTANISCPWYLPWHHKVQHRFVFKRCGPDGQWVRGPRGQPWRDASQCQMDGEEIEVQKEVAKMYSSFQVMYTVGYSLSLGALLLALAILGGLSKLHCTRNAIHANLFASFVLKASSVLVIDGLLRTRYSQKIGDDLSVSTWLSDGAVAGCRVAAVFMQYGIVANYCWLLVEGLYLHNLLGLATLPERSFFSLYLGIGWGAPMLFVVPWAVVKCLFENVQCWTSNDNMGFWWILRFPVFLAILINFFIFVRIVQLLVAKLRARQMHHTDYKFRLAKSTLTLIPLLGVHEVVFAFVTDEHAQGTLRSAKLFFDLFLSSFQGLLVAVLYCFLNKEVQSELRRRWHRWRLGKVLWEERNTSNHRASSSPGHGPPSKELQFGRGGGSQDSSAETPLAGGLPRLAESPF
Procedure, shortened: (§1)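 Readings of the HTRF 665/620 nm ratio, which falls as cAMP rises, were converted to nM cAMP using a standard curve after 30 min peptide exposure at 37° C.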

hGLP-1R = hGLP-1R (Homo sapiens, UniProt P43220); test: Functional cAMP formation (HTRF) in HEK-293 clonal cells expressing hGLP-1R, 0.1% bovine casein, without or with 1.0% human serum albumin; design: expressed in transfected cells; details: 37° C.; for EC50: cAMP, 0.1% bovine casein (no human serum albumin), geometric mean, read-out: hGLP-1R EC50, nM (SEM, n); for Emax: HEK293, 0.1% bovine casein and 1.0% human serum albumin, percent of maximal response to GLP-1(7-36)NH2, read-out: hGLP-1R Emax, % ± SEM
Chain of hGLP-1R (P43220 24-463): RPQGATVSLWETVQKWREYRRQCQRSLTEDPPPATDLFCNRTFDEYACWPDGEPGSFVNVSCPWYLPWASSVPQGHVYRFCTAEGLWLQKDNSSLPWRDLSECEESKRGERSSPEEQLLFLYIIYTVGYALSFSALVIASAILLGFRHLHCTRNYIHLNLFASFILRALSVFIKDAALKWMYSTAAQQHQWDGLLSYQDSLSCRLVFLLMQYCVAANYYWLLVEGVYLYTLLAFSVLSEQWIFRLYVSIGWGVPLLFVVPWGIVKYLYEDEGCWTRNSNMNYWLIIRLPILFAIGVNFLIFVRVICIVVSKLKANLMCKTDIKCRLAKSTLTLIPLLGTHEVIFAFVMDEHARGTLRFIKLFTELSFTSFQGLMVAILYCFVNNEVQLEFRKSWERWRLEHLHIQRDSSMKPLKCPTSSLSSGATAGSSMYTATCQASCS
Procedure, shortened: as §1

hGIPR = target: T2, hGIPR (Homo sapiens, UniProt P48546); test: Functional cAMP formation (HTRF) in HEK-293 clonal cells expressing hGIPR, 0.1% bovine casein, without or with 1.0% human serum albumin; details: 37° C.; for EC50: geometric mean, read-out: hGIPR EC50, nM (SEM, n); for Emax: percent of maximal response to GIP(1-42)NH2, read-out: hGIPR Emax, % ± SEM
T2 construct: expressed in transfected cells
T2 sequence (P48546 22-466): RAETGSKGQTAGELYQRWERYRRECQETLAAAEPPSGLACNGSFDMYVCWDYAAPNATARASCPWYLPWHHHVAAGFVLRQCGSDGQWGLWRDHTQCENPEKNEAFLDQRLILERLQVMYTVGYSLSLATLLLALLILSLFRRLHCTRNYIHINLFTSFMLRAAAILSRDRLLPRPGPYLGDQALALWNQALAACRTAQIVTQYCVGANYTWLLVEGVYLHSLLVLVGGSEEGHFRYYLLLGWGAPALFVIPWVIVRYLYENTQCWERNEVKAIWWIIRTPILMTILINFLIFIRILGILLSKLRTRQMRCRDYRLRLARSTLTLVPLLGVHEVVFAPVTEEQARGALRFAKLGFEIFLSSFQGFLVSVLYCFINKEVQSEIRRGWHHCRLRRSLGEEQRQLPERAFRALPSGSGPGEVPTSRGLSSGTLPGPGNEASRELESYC
Procedure, shortened: as §1

[1] = 0.1% bovine casein and 1.0% human serum albumin
[2] = cAMP, 0.1% bovine casein (no human serum albumin)
[3] = HEK293, 0.1% bovine casein and 1.0% human serum albumin
[4] = HEK293, cAMP, 0.1% bovine casein, arithmetic mean

Row | Structure (SMILES) | EC50 (hGCGR; [1]) [nM] | EC50 (hGCGR; [2]) [nM] | EC50 (hGLP-1R) [nM] | EC50 (hGIPR; [2]) [nM] | Emax (hGLP-1R) [%] | EC50 (hGIPR; [1]) [nM] | Emax (hGIPR; [3]) [%] | Emax (hGIPR; [4]) [%]
1 | CCCCCCCCCCCC(=O)N[C@@H](CCC(=O)NCCOCCOCC(=O)NCCOCCOCC(=O)NCCCC[C@H](NC(=O)[C@H](CCCN)NC(=O)[C@H](CC(=O)O)NC(=O)[C@H](CC(C)C)NC(=O)[C@](C)(CC(C)C)NC(=O)[C@@H](NC(=O)[C@H](CO)NC(=O)[C@H](Cc1ccncc1)NC(=O)[C@H](CC(=O)O)NC(=O)[C@H](CO)NC(=O)[C@@H](NC(=O)[C@](C)(Cc1ccccc1F)NC(=O)[C@@H](NC(=O)CNC(=O)[C@H](CCC(=O)O)NC(=O)C(C)(C)NC(=O)[C@@H](N)Cc1ccc(O)cc1)[C@@H](C)O)[C@@H](C)O)[C@@H](C)CC)C(=O)N[C@@H](C)C(=O)N[C@@H](CCC(N)=O)C(=O)NC(C)(C)C(=O)N[C@@H](CCCN)C(=O)N[C@@H](Cc1ccccc1)C(=O)N[C@H](C(=O)N[C@H](CCC(=O)O)C(=O)N[C@@](C)(Cc1ccc(O)cc1)C(=O)N[C@@H](CC(C)C)C(=O)N[C@H](C(=O)N[C@@H](CCCCNC(=O)COCCOCCNC(=O)COCCOCCNC(=O)CC[C@H](NC(=O)CCCCCCCCCCC)C(=O)O)C(=O)NCC(=O)NCC(=O)N1CCC[C@H]1C(=O)N[C@@H](CO)C(=O)N[C@@H](CO)C(=O)NCC(=O)N[C@@H](C)C(=O)N1CCC[C@H]1C(=O)N1CCC[C@H]1C(=O)N1CCC[C@H]1C(=O)N[C@@H](CO)C(N)=O)[C@@H](C)CC)[C@@H](C)CC)C(=O)O [Example 299] | > 9950 | > 9950 | 0.126 | 0.0104 | – | – | – | –
2 | CCCCCCCCCCCC(=O)N[C@@H](CCC(=O)NCCOCCOCC(=O)NCCOCCOCC(=O)NCCCC[C@H](NC(=O)[C@H](CCCN)NC(=O)[C@H](CC(=O)O)NC(=O)[C@H](CC(C)C)NC(=O)[C@](C)(CC(C)C)NC(=O)[C@@H](NC(=O)C(C)(C)NC(=O)[C@H](Cc1ccc(O)cc1)NC(=O)[C@H](CC(=O)O)NC(=O)[C@H](CO)NC(=O)[C@@H](NC(=O)[C@](C)(Cc1ccccc1F)NC(=O)[C@@H](NC(=O)CNC(=O)[C@H](CCC(=O)O)NC(=O)C(C)(C)NC(=O)[C@@H](N)Cc1ccc(O)cc1)[C@@H](C)O)[C@@H](C)O)[C@@H](C)CC)C(=O)N[C@@H](C)C(=O)N[C@@H](CCC(N)=O)C(=O)NC(C)(C)C(=O)N[C@@H](CCCCNC(=O)COCCOCCNC(=O)COCCOCCNC(=O)CC[C@H](NC(=O)CCCCCCCCCCC)C(=O)O)C(=O)N[C@@H](Cc1ccccc1)C(=O)N[C@H](C(=O)N[C@H](CCC(=O)O)C(=O)N[C@@](C)(Cc1ccc(O)cc1)C(=O)N[C@@H](CC(C)C)C(=O)N[C@H](C(=O)N[C@@H](CCC(=O)O)C(=O)NCC(=O)NCC(=O)N1CCC[C@H]1C(=O)N[C@@H](CO)C(=O)N[C@@H](CO)C(=O)NCC(=O)N[C@@H](C)C(=O)N1CCC[C@H]1C(=O)N1CCC[C@H]1C(=O)N1CCC[C@H]1C(=O)N[C@@H](CO)C(N)=O)[C@@H](C)CC)[C@@H](C)CC)C(=O)O [Example 300] | > 9950 | > 9950 | 0.194 | 0.0128 | 109 | 1.25 | 91.5 | –
3 | CCCCCCCCCCCC(=O)N[C@@H](CCC(=O)NCCOCCOCC(=O)NCCOCCOCC(=O)NCCCC[C@H](NC(=O)[C@H](CCCN)NC(=O)[C@H](CC(=O)O)NC(=O)[C@H](CC(C)C)NC(=O)[C@](C)(CC(C)C)NC(=O)[C@@H](NC(=O)C(C)(C)NC(=O)[C@H](Cc1ccc(O)cc1)NC(=O)[C@H](CC(=O)O)NC(=O)[C@H](CO)NC(=O)[C@@H](NC(=O)[C@](C)(Cc1ccccc1F)NC(=O)[C@@H](NC(=O)CNC(=O)[C@H](CCC(=O)O)NC(=O)C(C)(C)NC(=O)[C@@H](N)Cc1ccc(O)cc1)[C@@H](C)O)[C@@H](C)O)[C@@H](C)CC)C(=O)N[C@@H](C)C(=O)N[C@@H](CCC(N)=O)C(=O)NC(C)(C)C(=O)N[C@@H](CCC(=O)O)C(=O)N[C@@H](Cc1ccccc1)C(=O)N[C@H](C(=O)N[C@H](CCC(=O)O)C(=O)N[C@@](C)(Cc1ccc(O)cc1)C(=O)N[C@@H](CC(C)C)C(=O)N[C@H](C(=O)N[C@@H](CCCCNC(=O)COCCOCCNC(=O)COCCOCCNC(=O)CC[C@H](NC(=O)CCCCCCCCCCC)C(=O)O)C(=O)NCC(=O)NCC(=O)N1CCC[C@H]1C(=O)N[C@@H](CO)C(=O)N[C@@H](CO)C(=O)NCC(=O)N[C@@H](C)C(=O)N1CCC[C@H]1C(=O)N1CCC[C@H]1C(=O)N1CCC[C@H]1C(=O)N[C@@H](CO)C(N)=O)[C@@H](C)CC)[C@@H](C)CC)C(=O)O [Example 301] | > 9950 | > 9950 | 0.175 | 0.0128 | – | – | 85.5 | 97.4
4 | CC[C@H](C)[C@H](NC(=O)[C@H](CCCN)NC(=O)[C@H](CC(=O)O)NC(=O)[C@H](CC(C)C)NC(=O)[C@](C)(CC(C)C)NC(=O)[C@@H](NC(=O)[C@](C)(CO)NC(=O)[C@H](Cc1ccc(O)cc1)NC(=O)[C@H](CC(=O)O)NC(=O)[C@H](CO)NC(=O)[C@@H](NC(=O)[C@](C)(Cc1ccccc1F)NC(=O)[C@@H](NC(=O)CNC(=O)[C@H](CCC(=O)O)NC(=O)C(C)(C)NC(=O)[C@@H](N)Cc1ccc(O)cc1)[C@@H](C)O)[C@@H](C)O)[C@@H](C)CC)C(=O)N[C@@H](C)C(=O)N[C@@H](CCC(N)=O)C(=O)NC(C)(C)C(=O)N[C@@H](CCC(=O)O)C(=O)N[C@@H](Cc1ccccc1)C(=O)N[C@H](C(=O)N[C@@H](CCCCNC(=O)COCCOCCNC(=O)COCCOCCNC(=O)CC[C@H](NC(=O)CCCCCCCCCCCCC(=O)O)C(=O)O)C(=O)N[C@@](C)(Cc1ccc(O)cc1)C(=O)N[C@@H](CC(C)C)C(=O)N[C@H](C(=O)N[C@@H](CCCCNC(=O)COCCOCCNC(=O)COCCOCCNC(=O)CC[C@H](NC(=O)CCCCCCCCCCCCC(=O)O)C(=O)O)C(=O)NCC(=O)NCC(=O)N1CCC[C@H]1C(=O)N[C@@H](CO)C(=O)N[C@@H](CO)C(=O)NCC(=O)N[C@@H](C)C(=O)N1CCC[C@H]1C(=O)N1CCC[C@H]1C(=O)N1CCC[C@H]1C(=O)N[C@@H](CO)C(N)=O)[C@@H](C)CC)[C@@H](C)CC [Example 303] | > 9950 | > 9950 | 0.389 | 0.0178 | 111 | – | 89.8 | 100
5 | CC[C@H](C)[C@H](NC(=O)[C@H](CCCN)NC(=O)[C@H](CC(=O)O)NC(=O)[C@H](CC(C)C)NC(=O)[C@](C)(CC(C)C)NC(=O)[C@@H](NC(=O)C(C)(C)NC(=O)[C@@H](NC(=O)[C@H](CC(=O)O)NC(=O)[C@H](CO)NC(=O)[C@@H](NC(=O)[C@](C)(Cc1ccccc1F)NC(=O)[C@@H](NC(=O)CNC(=O)[C@H](CCC(=O)O)NC(=O)C(C)(C)NC(=O)[C@@H](N)Cc1ccc(O)cc1)[C@@H](C)O)[C@@H](C)O)C(C)C)[C@@H](C)CC)C(=O)N[C@@H](C)C(=O)N[C@@H](CCC(N)=O)C(=O)NC(C)(C)C(=O)N[C@@H](CCC(=O)O)C(=O)N[C@@H](Cc1ccccc1)C(=O)N[C@H](C(=O)N[C@@H](CCCCNC(=O)COCCOCCNC(=O)COCCOCCNC(=O)CC[C@H](NC(=O)CCCCCCCCCCCCC(=O)O)C(=O)O)C(=O)N[C@@](C)(Cc1ccc(O)cc1)C(=O)N[C@@H](CC(C)C)C(=O)N[C@H](C(=O)N[C@@H](CCCCNC(=O)COCCOCCNC(=O)COCCOCCNC(=O)CC[C@H](NC(=O)CCCCCCCCCCCCC(=O)O)C(=O)O)C(=O)NCC(=O)NCC(=O)N1CCC[C@H]1C(=O)N[C@@H](CO)C(=O)N[C@@H](CO)C(=O)NCC(=O)N[C@@H](C)C(=O)N1CCC[C@H]1C(=O)N1CCC[C@H]1C(=O)N1CCC[C@H]1C(=O)N[C@@H](CO)C(N)=O)[C@@H](C)CC)[C@@H](C)CC [Example 304] | > 9950 | > 9950 | 0.474 | 0.047 | 98.3 | – | – | 110
